Laboratory results reported in patent EP4778921A1, “SALT FORM AND CRYSTAL FORM OF NITROGEN-CONTAINING HETEROCYCLIC DERIVATIVE INHIBITOR, AND PREPARATION METHOD THEREFOR AND USE THEREOF” (Shanghai Hansoh Biomedical Co., Ltd., priority 2023, dated 2025).
Structures can show the parent of a compound that is named as a salt.

Key:
Ba/F3 EGFR Del19/C797S = assay: Cell proliferation inhibition experiment (Cell Titer-Glo); type: cell-based; conditions: Mus musculus, 72 hours, read-out: Ba/F3 EGFR Dell9/C797S IC50
Protocol: (§1) Experimental objective: The objective of this test example is to test the inhibitory activity of compounds on the proliferation of different EGFR C797S drug-resistant mutant cell lines Ba/F3 EGFR Del19/T790M/C797S, Ba/F3 EGFR L858R/T790M/C797S, and Ba/F3 EGFR Del19/C797S. Experimental instruments: Centrifuge (Eppendorf 5810R); Microplate reader (BioTek Synergy H1) Pipette (Eppendorf or Rainin); Carbon dioxide incubator (Thermo 311) Cell counter (Life Countess II) Experimental reagents and consumables: • Ba/F3 EGFR Del19/T790M/C797S cells were purchased from KYinno Biotechnology Co., Ltd.; • Ba/F3 EGFR Del19/C797S cells were purchased from CoBioer Biosciences Co., Ltd.; • Ba/F3 EGFR L858R/T790M/C797S cells were purchased from CoBioer Biosciences Co., Ltd.; • Cell Titer-Glo was purchased from Promega, with a catalogue number of G7573; • RPMI 1640 was purchased from Gibco, with a catalogue number of 22400089; • FBS was purchased from Gibco, with a catalogue number of 10091148; • cell culture plates were purchased from Corning, with a catalogue number of 3610. Experimental methods: The inhibitory activity of the compound on the proliferation of different EGFR C797S drug-resistant mutant cell lines was detected using the Cell Titer-Glo method. The different cell lines were cultured in RPMI 1640 complete culture medium containing 10% FBS under conditions of 37°C and 5% CO2, the cells were collected by centrifugation when growing to a certain density, and adjusted to appropriate cell density after counting, the cells were spread on a white 96-well plate at 90 µL/well, and cultured in a 37°C, 5% CO2 incubator overnight, prepared compound solutions at different concentrations were added at 10 µL/well, corresponding solvent controls were set, and all wells were cultured in a 37°C, 5% CO2 incubator for 72 hours, 50 µL of CellTiter-Glo solution was added to each well, shook and mixed evenly, and incubated in the dark for 10 minutes, and a BioTek Synergy H1 microplate reader was used for reading. Experimental data processing method: The luminescence signal value was used to calculate the inhibition rate. Graphpad Prism software was used to fit the concentration and inhibition rate to a nonlinear regression curve, so as to obtain the IC50 value, as shown in the Table below for details.

[1] = Solubility experiments in different media, crystal forms of salts; type: physicochemical; set-up: thermodynamic solubility FaSSIF / thermodynamic solubility FaSSGF / thermodynamic solubility FeSSIF: unit not given here; conditions: about 2 mg suspended for 24 hours, 37°C, HPLC, external standard method; for thermodynamic solubility FaSSGF: FaSSGF (artificial simulated gastric fluid); for thermodynamic solubility FaSSIF: FaSSIF (fasted-state artificial simulated intestinal fluid); for thermodynamic solubility FeSSIF: FeSSIF (fed-state artificial simulated intestinal fluid)
From the text: 4.1 Experimental objective: The solubility of the crystal form A of phosphate, crystal form A of hydrochloride, crystal form A of sulphate, crystal form A of citrate, crystal form A of oxalate, crystal form A of maleate and crystal form A of salicylate in media such as artificial simulated gastric fluid (FaSSGF), fasted-state artificial simulated intestinal fluid (FaSSIF), and fed-state artificial simulated intestinal fluid (FeSSIF) was compared to provide a basis for the evaluation of the potential of the crystal forms of salts being manufactured as a drug. […]

[2] = Hygroscopicity experiment (crystal forms of salts and crystal form A of free base); type: physicochemical; conditions: for weight gain after moisture absorption / hygroscopicity: RH 80%; for crystal form transformation (XRPD pattern): after 1 cycle of moisture absorption and desorption, 0-95% relative humidity; for hygroscopicity: result in words
From the text: • 2.1 Experimental objective: The hygroscopicity of different crystal forms of salts of the compound was investigated under various relative humidity conditions to provide a basis for screening and storage of the crystal forms of salts of the compound. • 2.2 Experimental scheme: The crystal forms of salts of the compound were placed in saturated water vapor at different relative humidities to reach a dynamic equilibrium between the compound and the water vapor.
3.1 Experimental objective: The hygroscopicity of crystal form A of free base of the compound was investigated under various relative humidity conditions to provide a basis for screening and storage of the crystal forms of the compound.
3.2 Experimental scheme: The crystal form A of free base of the compound was placed in saturated water vapor at different relative humidities to reach a dynamic equilibrium between the compound and the water vapor. The percentage weight gain of the compound due to moisture absorption was calculated after the equilibrium.

[3] = Solid stability experiment of crystal forms of salts (7 and 14 days); type: physicochemical
Protocol: • 3.1 Experimental objective: To investigate the physical and chemical stability for different crystal forms of salts under the conditions of a high temperature of 60°C (GW), a high humidity of RH = 92.5% (GS), and both a high temperature of 50°C and a high humidity of RH = 75% (JS) and provide a basis for the screening of the crystal forms of salts and the storage of the crystal forms of salts of the compound. • 3.2 Experimental scheme: Different crystal forms of salts (crystal form A of hydrochloride, crystal form A of sulphate, crystal form A of citrate, crystal form A of oxalate, crystal form A of maleate and crystal form A of salicylate) were accurately weighed, and the stability of the crystal forms was investigated for 7 and 14 days under the three conditions of 60°C (GW), 92.5% RH (room temperature, GS), and 50°C/75% RH (JS). […] Therefore, they can well meet the requirements of subsequent drug development. […] Therefore, they both satisfy the requirements for subsequent drug storage.

[4] = tested on: Ba/F3 EGFR Del19/T790M/C797S; assay: Cell proliferation inhibition experiment (Cell Titer-Glo); type: cell-based; conditions: Mus musculus, 72 hours, read-out: Ba/F3 EGFR Del19_T790M_C797S IC50
Protocol: as §1

[5] = high temperature and high humidity conditions, 7 and 14 days
[6] = high temperature, high humidity, and both high temperature and high humidity conditions, 7 and 14 days
[7] = placed for a period of time under various conditions

| SMILES | IC50 (Ba/F3 EGFR Del19/C797S) [nM] | thermodynamic solubility FaSSGF [1] | thermodynamic solubility FaSSIF [1] | thermodynamic solubility FeSSIF [1] | weight gain after moisture absorption [2] [%] | crystal form transformation (XRPD pattern) [2] | stability (impurity increase) [3, 5] | hygroscopicity [2] | stability (impurity increase) [3, 6] | stability (impurity increase) [3, 7] | IC50 [4] [nM] |
| --- | --- | --- | --- | --- | --- | --- | --- | --- | --- | --- | --- |
| CC(C)c1c(F)cc(N2CC(N(C)S(C)(=O)=O)C2)c2cnc(Nc3ccnc(-c4cn(C)nc4Cl)n3)cc12 [Example 3, N-(1-(3-((2-(3-chloro-1-methyl-1H-pyrazol-4-yl)pyrimidin-4-yl)amino)-6-fluoro-5-isopropylisoquinolin-8-yl)azetidin-3-yl)-N-methylmethanesulphonamide] | 14 | – | – | – | – | – | – | – | – | – | – |
| CC(C)c1c(F)cc(N2C[C@H](N(C)S(C)(=O)=O)[C@H]2C)c2cnc(Nc3ccnc(-c4cn(C)nc4Cl)n3)cc12 [crystal form A of maleate, N-((2R,3S)-1-(3-((2-(3-chloro-1-methyl-1H-pyrazol-4-yl)pyrimidin-4-yl)amino)-6-fluoro-5-isopropylisoquinolin-8-yl)-2-methylazetidin-3-yl)-N-methylmethanesulphonamide] | – | 0.075 | 0.029 | >1.020 | 2.050 | no crystal form transformation occurred | relatively stable | – | – | – | – |
| CC(C)c1c(F)cc(N2C[C@H](N(C)S(C)(=O)=O)[C@H]2C)c2cnc(Nc3ccnc(-c4cn(C)nc4Cl)n3)cc12 [crystal form A of citrate, N-((2R,3S)-1-(3-((2-(3-chloro-1-methyl-1H-pyrazol-4-yl)pyrimidin-4-yl)amino)-6-fluoro-5-isopropylisoquinolin-8-yl)-2-methylazetidin-3-yl)-N-methylmethanesulphonamide] | – | 0.053 | 0.159 | >0.870 | 0.573 | no crystal form transformation occurred | – | weak hygroscopicity | relatively stable | – | – |
| CC(C)c1c(F)cc(N2C[C@H](N(C)S(C)(=O)=O)[C@H]2C)c2cnc(Nc3ccnc(-c4cn(C)nc4Cl)n3)cc12 [crystal form A of sulphate, N-((2R,3S)-1-(3-((2-(3-chloro-1-methyl-1H-pyrazol-4-yl)pyrimidin-4-yl)amino)-6-fluoro-5-isopropylisoquinolin-8-yl)-2-methylazetidin-3-yl)-N-methylmethanesulphonamide] | – | 0.096 | 0.034 | 1.114 | 4.616 | no crystal form transformation occurred | – | – | – | remain stable | – |
| Cc1nn(C)cc1-c1nccc(Nc2cc3c(C(C)C)c(F)cc(N4CC(N(C)S(C)(=O)=O)C4)c3cn2)n1 [Example 6, N-(1-(3-((2-(1,3-dimethyl-1H-pyrazol-4-yl)pyrimidin-4-yl)amino)-6-fluoro-5-isopropylisoquinolin-8-yl)azetidin-3-yl)-N-methylmethanesulphonamide] | 22 | – | – | – | – | – | – | – | – | – | – |
| CC(C)c1c(F)cc(N2C[C@H](N(C)S(C)(=O)=O)[C@H]2C)c2cnc(Nc3ccnc(-c4cn(C)nc4Cl)n3)cc12 [crystal form A of oxalate, N-((2R,3S)-1-(3-((2-(3-chloro-1-methyl-1H-pyrazol-4-yl)pyrimidin-4-yl)amino)-6-fluoro-5-isopropylisoquinolin-8-yl)-2-methylazetidin-3-yl)-N-methylmethanesulphonamide] | – | 0.070 | 0.035 | 1.228 | 1.707 | no crystal form transformation occurred | – | weak hygroscopicity | relatively stable | – | – |
| CC(C)c1c(F)cc(N2C[C@H](N(C)S(C)(=O)=O)[C@H]2C)c2cnc(Nc3ccnc(-c4cn(C)nc4Cl)n3)cc12 [crystal form A of hydrochloride, N-((2R,3S)-1-(3-((2-(3-chloro-1-methyl-1H-pyrazol-4-yl)pyrimidin-4-yl)amino)-6-fluoro-5-isopropylisoquinolin-8-yl)-2-methylazetidin-3-yl)-N-methylmethanesulphonamide] | – | 0.072 | 0.214 | >1.016 | – | – | – | – | – | remain stable | – |
| CC(C)c1c(F)cc(N2C[C@H](N(C)S(C)(=O)=O)[C@H]2C)c2cnc(Nc3ccnc(-c4cn(C)nc4Cl)n3)cc12 [crystal form A of salicylate, N-((2R,3S)-1-(3-((2-(3-chloro-1-methyl-1H-pyrazol-4-yl)pyrimidin-4-yl)amino)-6-fluoro-5-isopropylisoquinolin-8-yl)-2-methylazetidin-3-yl)-N-methylmethanesulphonamide] | – | 0.020 | 0.101 | 0.672 | 0.1374 | no crystal form transformation occurred | relatively stable | weak hygroscopicity | – | – | – |
| CC(C)c1c(F)cc(N2C[C@H](N(C)S(C)(=O)=O)[C@H]2C)c2cnc(Nc3ccnc(-c4cn(C)nc4Cl)n3)cc12 [crystal form B of hydrochloride, N-((2R,3S)-1-(3-((2-(3-chloro-1-methyl-1H-pyrazol-4-yl)pyrimidin-4-yl)amino)-6-fluoro-5-isopropylisoquinolin-8-yl)-2-methylazetidin-3-yl)-N-methylmethanesulphonamide] | – | – | – | – | 1.157 | no crystal form transformation occurred | – | weak hygroscopicity | – | – | – |
| Cc1nn(C)cc1-c1nccc(Nc2cc3c(C(C)C)c(F)cc(N4C[C@H](CS(C)(=O)=O)[C@H]4C)c3cn2)n1 [Example 4, N-(2-(1,3-dimethyl-1H-pyrazol-4-yl)pyrimidin-4-yl)-6-fluoro-5-isopropyl-8-((2R,3S)-2-methyl-3-((methanesulphonyl)methyl)azetidin-1-yl)isoquinolin-3-amine] | 18 | – | – | – | – | – | – | – | – | – | 6.8 |
| CC(C)c1c(F)cc(N2CC(NS(C)(=O)=O)C2)c2cnc(Nc3ccnc(-c4cn(C)nc4Cl)n3)cc12 [Example 13, N-(1-(3-((2-(3-chloro-1-methyl-1H-pyrazol-4-yl)pyrimidin-4-yl)amino)-6-fluoro-5-isopropylisoquinolin-8-yl)azetidin-3-yl)methanesulphonamide] | 19 | – | – | – | – | – | – | – | – | – | – |
